US11320434B2, “Method and apparatus for rapid detection of SARS-CoV-2” (priority 2020, dated 2022)

Tests used:
[1] = test system: tetracysteine-containing peptide; settings: peptide-bound versus free FlAsH-EDT2; cited from earlier work
[2] = target: T1, K9K peptide ([…], SARS-CoV-2 spike protein position 1245 to 1255) (Severe acute respiratory syndrome coronavirus 2, UniProt P0DTC2); assay type: binding
T1 construct: purchased Innovagen AB

O=C(O)c1ccccc1-c1c2ccc(=O)c([As]3SCCS3)c-2oc2c([As]3SCCS3)c(O)ccc12 [FlAsH, 2-(4,5-di(1,3,2-dithiarsolan-2-yl)-6-hydroxy-3-oxo-3H-xanthen-9-yl)benzoic acid]
increase in fluorescence upon exchanging the EDTs for a tetracysteine-containing peptide [1]: more than 50,000 times | change of fluorescence after heating the mixture [2]: more than doubled | effect of a reducing agent on emitted fluorescence [2]: can be enhanced | emission of K9K-FlAsH versus FlAsH Control [2]: meaningfully greater | emitted fluorescence versus Control at K9K dilutions [2]: meaningful increases over the Control | fluorescence after prior oxidation of K9K cysteine residues by DTNB (Curve 2) [2]: prevents generation of fluorescence | fluorescence after treatment of oxidized K9K with TCEP (Curve 3) [2]: recovery of fluorescence | fluorescence on treatment of peptide K9K with FlAsH (Curve 1) [2]: rapidly generate intense fluorescence emission | fluorescence with TCEP and heating versus without TCEP or heating [2]: nearly six times greater | time at which emission of fluorescence begins [2]: ≤ 15 s
